From ChEMBL document CHEMBL3244230, “Synthesis and gastric antisecretory properties of 15-deoxy-16-hydroxyprostaglandin E analogues” (1977)
The source made the active and inactive calls. The calls are words filed in the database; no cut-off is given here.

Legend:
[1] = tested on: Canis familiaris; assay: Gastric antisecretory activity in Mongrel dog with heidenhain pouch assessed as inhibition of histamine-induced total acid output at 0.1 to 100 ug/kg, iv by titrimetric method relative to PGE1; assay type: functional, Canis lupus familiaris
[2] = tested on: Canis familiaris; assay: Gastric antisecretory activity in iv dosed Mongrel dog with heidenhain pouch assessed as inhibition of histamine-induced total acid output by titrimetric method; assay type: functional; conditions: Canis lupus familiaris, read-out: ID50 (the source's name)
[3] = tested on: Canis familiaris; assay: Gastric antisecretory activity in Mongrel dog with heidenhain pouch assessed as inhibition of histamine-induced total acid output at 30 ug/kg, iv by titrimetric method; assay type: functional, organism-based; conditions: Canis lupus familiaris

Structure (SMILES) | fold change (FC) [1] | ED50 [2] [µg/kg] | inhibition [3]
CCCCC(O)(CC)C/C=C/[C@H]1[C@H](O)CC(=O)[C@@H]1CCCCCCC(=O)OC (mixture of isomers) | 0.21 | 27.8 | –
CCCCC(O)C(C)(C)/C=C/[C@H]1[C@H](O)CC(=O)[C@@H]1CCCCCCC(=O)OC (mixture of isomers) | 0.05 | 140 | –
CCCCC(C)(O)CCC[C@H]1[C@H](O)CC(=O)[C@@H]1CCCCCCC(=O)OC (mixture of isomers) | 0.98 | 5.9 | –
CCCCC(C)(O)C/C=C/[C@H]1[C@H](O)CC(=O)[C@@H]1C/C=C\CCCC(=O)OC (mixture of isomers) | 24.9 | 0.3 | –
CCCCC(C)(O)C/C=C/[C@H]1[C@@H](O)CC(=O)[C@@H]1CCCCCCC(=O)OC (mixture of isomers) | 0.21 | 16.9 | –
CCCCC[C@H](O)/C=C/[C@H]1[C@H](O)CC(=O)[C@@H]1CCCCCCC(=O)O [ALPROSTADIL] | – | 6.7 | –
CCCC(C)(C)C(O)C/C=C/[C@H]1[C@H](O)CC(=O)[C@@H]1CCCCCCC(=O)OC (mixture of isomers) | – | – | inactive
CCCCC(C)(O)C/C=C/[C@H]1CCC(=O)[C@@H]1CCCCCCC(=O)O (mixture of isomers) | 1.5 | 4.3 | –
CCCCC(O)C/C=C/[C@H]1[C@H](O)CC(=O)[C@@H]1C/C=C\CCCC(=O)OC (mixture of isomers) | 1.9 | 4.1 | –
CCCCC[C@H](O)/C=C/[C@H]1[C@H](O)CC(=O)[C@@H]1CCCCCCC(=O)OC | 2.3 | 3.8 | –
CCCCC(O)C/C=C/[C@H]1[C@H](O)CC(=O)[C@@H]1CCCCCCC(=O)OC (mixture of isomers) | 0.7 | 5.4 | –
CCCCCC(C)(O)C/C=C/[C@H]1[C@H](O)CC(=O)[C@@H]1CCCCCCC(=O)OC (mixture of isomers) | 19.9 | 0.31 | –
CCCCC(C)(O)C/C=C\[C@H]1[C@H](O)CC(=O)[C@@H]1CCCCCCC(=O)OC (mixture of isomers) | 0.17 | 39.8 | –
CCCCC(C)(O)C/C=C/[C@H]1[C@H](O)CC(=O)[C@@H]1CCCCCCC(=O)OC (mixture of isomers) [MISOPROSTOL] | 47.8 | 0.16 | –
